# Earlier results, collected in US20260345597A1, “LONG-ACTING AND SUSTAINED-RELEASE PREPARATION COMPOSITION OF LUMATEPERONE AND PREPARATION METHOD THEREOF” (SICHUAN KELUN PHARMACEUTICAL RESEARCH INSTITUTE CO., LTD., priority 2023, published 2026).
# Tested on: patients with schizophrenia
# Conditions: background
smiles,measurement,setting,value
CN1CCN2c3c(cccc31)[C@@H]1CN(CCCC(=O)c3ccc(F)cc3)CC[C@@H]12 [lumateperone],adverse reactions such as weight gain and abnormal lipid metabolism,,less likely to cause adverse reactions such as weight gain and abnormal lipid metabolism
same,effect on symptoms of schizophrenia,patients with schizophrenia,"alleviating positive symptoms while improving negative symptoms, depressive symptoms, and social functioning"
same,safety and tolerability profile,patients with schizophrenia,superior safety and tolerability profiles
